Among the data in ChEMBL document CHEMBL1147218, “New bioactive diterpene polyesters from Euphorbia decipiens” (J Nat Prod, 2003) are IC12 and IC50 values, retold here.

Assay [1] relates to Saccharomyces cerevisiae. The assay is described as follows: DNA damaging activity against DNA repair-deficient RS 322YK (rad 52Y) yeast assessed as drug level required to produce 12 mm zone of inhibition. Type of assay: functional.
Assay [2] concerns Saccharomyces cerevisiae. Nature of the assay: DNA damaging activity against wild type (Rad+) yeast assessed as drug level required to produce 12 mm zone of inhibition. It counts as functional.
In assay [3] the target is Prolyl endopeptidase (Elizabethkingia meningoseptica, UniProt P27028). The assay is described as follows: Inhibition of Flavobacterium meningosepticum […].
Prolyl endopeptidase, sequence (P27028 21-705 limits assumed): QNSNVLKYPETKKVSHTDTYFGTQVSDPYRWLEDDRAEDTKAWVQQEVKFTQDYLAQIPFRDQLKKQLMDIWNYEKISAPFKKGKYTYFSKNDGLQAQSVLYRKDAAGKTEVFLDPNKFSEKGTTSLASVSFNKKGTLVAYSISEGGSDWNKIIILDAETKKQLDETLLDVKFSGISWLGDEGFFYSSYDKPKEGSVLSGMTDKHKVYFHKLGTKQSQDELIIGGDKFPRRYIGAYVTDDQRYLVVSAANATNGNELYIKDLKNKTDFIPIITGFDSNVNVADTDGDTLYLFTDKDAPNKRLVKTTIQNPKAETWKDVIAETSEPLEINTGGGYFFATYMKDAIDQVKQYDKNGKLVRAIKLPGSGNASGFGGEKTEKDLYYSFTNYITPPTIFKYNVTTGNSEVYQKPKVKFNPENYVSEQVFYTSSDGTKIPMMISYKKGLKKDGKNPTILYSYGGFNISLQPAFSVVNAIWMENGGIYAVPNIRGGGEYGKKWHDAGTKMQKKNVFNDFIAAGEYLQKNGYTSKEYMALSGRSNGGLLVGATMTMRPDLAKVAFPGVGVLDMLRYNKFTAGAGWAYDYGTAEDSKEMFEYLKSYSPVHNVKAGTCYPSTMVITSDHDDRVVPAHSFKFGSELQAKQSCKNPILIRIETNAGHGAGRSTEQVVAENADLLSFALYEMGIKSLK

Take `CC(=O)OC[C@@]12[C@H](OC(C)=O)[C@H]3[C@@H](OC(C)=O)[C@@H](C)C[C@]3(OC(C)=O)C(=O)[C@@]3(C)OC(C)(C)[C@@H](C=C[C@H]1OC(=O)c1ccccc1)[C@H]23`: the IC12 in assay [1] was found to be 750 µg/mL; in assay [2] it was 1090 µg/mL.
Take `CC(=O)OC[C@@]12[C@H](OC(C)=O)[C@H]3[C@@H](OC(C)=O)[C@@H](C)C[C@]3(O)C(=O)[C@@]3(C)OC(C)(C)[C@@H](C=C[C@H]1OC(=O)c1ccccc1)[C@H]23`: the concentration for half-maximal inhibition (IC50) in assay [3] worked out at 16.9 µM.
On to `CC[C@@]1(O)C(=O)OCc2c1cc1n(c2=O)Cc2cc3ccccc3nc2-1` [CAMPTOTHECIN], for which the IC12 in assay [1] was determined as 12 µg/mL; in assay [2], 75 µg/mL.

As usually defined, the IC50 is the midpoint of a concentration-inhibition curve. A lower IC50 goes with greater potency.
